From ChEMBL document CHEMBL1130760, “Anti-malarial activities of acylated bruceolide derivatives” (Bioorg Med Chem Lett, 1998) come the findings set out here.

Test [1] relates to FM3A. Put plainly: Cytotoxicity against FM3A cells derived from a mammary tumor in mice was evaluated. It is filed as functional, cell-based. The following applies: Mus musculus.
The test system of the next test is Plasmodium falciparum. Put plainly: Anti-malarial activity as growth inhibition of chloroquine-resistant Plasmodium falciparum. The class given is functional, organism-based.
Test [2] deals with FM3A. Put plainly: Selective toxicity against Plasmodium falciparum compared to FM3A cytotoxicity. The class given is functional.
Test [3] relates to FM3A. In words: […] was evaluated by the percent viability of cells. It is filed as functional, Mus musculus.

Values joined by “and” are separate entries in the source; they are usually repeats but may differ in a detail not shown here. Equal entries are not always repeated.

As to `COC(=O)[C@@]12OC[C@]34[C@H]([C@@H](O)[C@@H]1O)[C@@]1(C)CC(=O)C(O)=C(C)[C@@H]1C[C@H]3OC(=O)[C@H](O)[C@@H]24` [BRUCEOLIDE], the results for the EC50 in the test on FM3A [1] and with Plasmodium falciparum (Plasmodium falciparum) were above 21 µM and 1.7 µM, respectively. In addition, the Ratio with FM3A [2] is above 12.3.
For the compound `COC(=O)[C@@]12OC[C@]34[C@H]([C@@H](O)[C@@H]1O)[C@@]1(C)CC(=O)C(OC(=O)C(C)N)=C(C)[C@@H]1C[C@H]3OC(=O)[C@H](OC(=O)C(C)N)[C@@H]24` (some centres undefined), the results for the EC50 in the test on FM3A [1] and in the test on Plasmodium falciparum (Plasmodium falciparum) were above 16 µM and 1 µM, respectively. Moreover, the Ratio in the test on FM3A [2] is recorded as above 16.
Regarding `CCCCCCCCCC(=O)OC1=C(C)[C@@H]2C[C@H]3OC(=O)[C@H](OC(=O)CCCCCCCCC)[C@H]4[C@]5(C(=O)OC)OC[C@]34[C@H]([C@@H](O)[C@@H]5O)[C@@]2(C)CC1=O`, the 50% effective concentration (EC50) (as a rule, the midpoint of the concentration-response curve) was below 0.16 µM in the test on FM3A [1] and 0.39 µM with Plasmodium falciparum (Plasmodium falciparum).
Consider `COC(=O)[C@@]12OC[C@]34[C@H]([C@@H](O)[C@@H]1O)[C@@]1(C)CC(=O)C(OC(=O)/C=C/c5ccccc5)=C(C)[C@@H]1C[C@H]3OC(=O)[C@H](OC(=O)/C=C/c1ccccc1)[C@@H]24`, for which the EC50 is below 0.15 µM with FM3A [1] and 0.082 µM in the test on Plasmodium falciparum (Plasmodium falciparum).
Turning to `CCC(=O)O[C@H]1C(=O)O[C@@H]2C[C@H]3C(C)=C(O)C(=O)C[C@]3(C)[C@H]3[C@@H](O)[C@H](O)[C@@]4(C(=O)OC)OC[C@]32[C@@H]14`, the EC50 in the test with FM3A [1] is 7 µM; with Plasmodium falciparum (Plasmodium falciparum), 0.029 µM. The Ratio in the test with FM3A [2] worked out at 241.
As to `COC(=O)[C@@]12OC[C@]34[C@H]([C@@H](O)[C@@H]1O)[C@@]1(C)CC(=O)C(OC(=O)c5ccccc5)=C(C)[C@@H]1C[C@H]3OC(=O)[C@H](OC(=O)c1ccccc1)[C@@H]24`, the 50% effective concentration (EC50) was 0.4 µM in the test with FM3A [1] and above 1 µM in the test with Plasmodium falciparum (Plasmodium falciparum).
Turning to `COC(=O)[C@@]12OC[C@]34[C@H]([C@@H](O)[C@@H]1O)[C@@]1(C)CC(=O)C(OC(=O)C(N)C(C)C)=C(C)[C@@H]1C[C@H]3OC(=O)[C@H](OC(=O)C(N)C(C)C)[C@@H]24` (some centres undefined), the EC50 in the test on FM3A [1] was above 15 µM; with Plasmodium falciparum (Plasmodium falciparum), 0.57 µM. Besides, the Ratio in the test with FM3A [2] was above 26.
Take `CCC(=O)OC1=C(C)[C@@H]2C[C@H]3OC(=O)[C@H](OC(=O)CC)[C@H]4[C@]5(C(=O)OC)OC[C@]34[C@H]([C@@H](O)[C@@H]5O)[C@@]2(C)CC1=O`: the 50% effective concentration (EC50) in the test with FM3A [1] was 6.1 µM; in the test with Plasmodium falciparum (Plasmodium falciparum) it was 0.035 µM. Also, in the test on FM3A [2], the Ratio came out at 174.
Turning to `COC(=O)[C@@]12OC[C@]34[C@H]([C@@H](O)[C@@H]1O)[C@@]1(C)CC(=O)C(O)=C(C)[C@@H]1C[C@H]3OC(=O)[C@H](OC(C)=O)[C@@H]24` [BRUCEINE B], the results for the EC50 in the test on FM3A [1] and in the test on Plasmodium falciparum (Plasmodium falciparum) were 8 µM and 0.024 µM, respectively. In addition, the Ratio in the test on FM3A [2] is 333.
For `C/C=C(/C)C(=O)OC1=C(C)[C@@H]2C[C@H]3OC(=O)[C@H](OC(=O)/C(C)=C\C)[C@H]4[C@]5(C(=O)OC)OC[C@]34[C@H]([C@@H](O)[C@@H]5O)[C@@]2(C)CC1=O`, in that order: 6 µM, 0.7 µM and 9.
With `CCCCCC(=O)OC1=C(C)[C@@H]2C[C@H]3OC(=O)[C@H](O)[C@H]4[C@]5(C(=O)OC)OC[C@]34[C@H]([C@@H](O)[C@@H]5O)[C@@]2(C)CC1=O`, the EC50 in the test with FM3A [1] and with Plasmodium falciparum (Plasmodium falciparum) was 1 µM throughout.
`COC(=O)[C@@]12OC[C@]34[C@H]([C@@H](O)[C@@H]1O)[C@@]1(C)CC(=O)C(OC(C)=O)=C(C)[C@@H]1C[C@H]3OC(=O)[C@H](OC(C)=O)[C@@H]24`: the concentration giving a half-maximal response (EC50) in the test on FM3A [1] was 16 µM; in the test with Plasmodium falciparum (Plasmodium falciparum), 0.039 µM. Besides, in the test with FM3A [2], the Ratio was 410.
The compound `C/C=C(\C)C(=O)OC1=C(C)[C@@H]2C[C@H]3OC(=O)[C@H](OC(=O)/C(C)=C/C)[C@H]4[C@]5(C(=O)OC)OC[C@]34[C@H]([C@@H](O)[C@@H]5O)[C@@]2(C)CC1=O` showed a Viability in the test with FM3A [3] of 100%. Also, the EC50 was above 16 µM with FM3A [1]; > 1 µM and 16 µM with Plasmodium falciparum.
Take `COC(=O)[C@@]12OC[C@]34[C@H]([C@@H](O)[C@@H]1O)[C@@]1(C)CC(=O)C(OC(=O)C(N)Cc5ccccc5)=C(C)[C@@H]1C[C@H]3OC(=O)[C@H](OC(=O)C(N)Cc1ccccc1)[C@@H]24` (some centres undefined): the EC50 in the test with FM3A [1] is above 15 µM; in the test on Plasmodium falciparum (Plasmodium falciparum), 2.8 µM. Further, the Ratio with FM3A [2] is reported as above 5.4.
Turning to `CCCCCC(=O)OC1=C(C)[C@@H]2C[C@H]3OC(=O)[C@H](OC(=O)CCCCC)[C@H]4[C@]5(C(=O)OC)OC[C@]34[C@H]([C@@H](O)[C@@H]5O)[C@@]2(C)CC1=O`, the half-maximal effective concentration (EC50) in the test with FM3A [1] was below 0.17 µM; in the test on Plasmodium falciparum (Plasmodium falciparum), 0.098 µM.
As to `CCCCCCCCCC(=O)OC1=C(C)[C@@H]2C[C@H]3OC(=O)[C@H](O)[C@H]4[C@]5(C(=O)OC)OC[C@]34[C@H]([C@@H](O)[C@@H]5O)[C@@]2(C)CC1=O`, the EC50 with FM3A [1] was 0.4 µM; in the test with Plasmodium falciparum (Plasmodium falciparum), above 1 µM.
In turn, `CCCCCCCCCCCCCCCC(=O)OC1=C(C)[C@@H]2C[C@H]3OC(=O)[C@H](OC(=O)CCCCCCCCCCCCCCC)[C@H]4[C@]5(C(=O)OC)OC[C@]34[C@H]([C@@H](O)[C@@H]5O)[C@@]2(C)CC1=O` gave a Viability in the test on FM3A [3] of 89.9%. In the test with Plasmodium falciparum (Plasmodium falciparum), this compound gave an EC50 of 16 µM.
